Results on seven compounds are retold here after patent US20210323977A1, “PYRROLIDINYL AMIDE COMPOUNDS FOR THE TREATMENT OF AUTOIMMUNE DISEASE” (Hoffmann-La Roche Inc., priority 2018, published 2021).

The test concerns the target T1, human TLR7 (Homo sapiens, UniProt Q9NYK1).
T1 sequence (Q9NYK1 27-1049): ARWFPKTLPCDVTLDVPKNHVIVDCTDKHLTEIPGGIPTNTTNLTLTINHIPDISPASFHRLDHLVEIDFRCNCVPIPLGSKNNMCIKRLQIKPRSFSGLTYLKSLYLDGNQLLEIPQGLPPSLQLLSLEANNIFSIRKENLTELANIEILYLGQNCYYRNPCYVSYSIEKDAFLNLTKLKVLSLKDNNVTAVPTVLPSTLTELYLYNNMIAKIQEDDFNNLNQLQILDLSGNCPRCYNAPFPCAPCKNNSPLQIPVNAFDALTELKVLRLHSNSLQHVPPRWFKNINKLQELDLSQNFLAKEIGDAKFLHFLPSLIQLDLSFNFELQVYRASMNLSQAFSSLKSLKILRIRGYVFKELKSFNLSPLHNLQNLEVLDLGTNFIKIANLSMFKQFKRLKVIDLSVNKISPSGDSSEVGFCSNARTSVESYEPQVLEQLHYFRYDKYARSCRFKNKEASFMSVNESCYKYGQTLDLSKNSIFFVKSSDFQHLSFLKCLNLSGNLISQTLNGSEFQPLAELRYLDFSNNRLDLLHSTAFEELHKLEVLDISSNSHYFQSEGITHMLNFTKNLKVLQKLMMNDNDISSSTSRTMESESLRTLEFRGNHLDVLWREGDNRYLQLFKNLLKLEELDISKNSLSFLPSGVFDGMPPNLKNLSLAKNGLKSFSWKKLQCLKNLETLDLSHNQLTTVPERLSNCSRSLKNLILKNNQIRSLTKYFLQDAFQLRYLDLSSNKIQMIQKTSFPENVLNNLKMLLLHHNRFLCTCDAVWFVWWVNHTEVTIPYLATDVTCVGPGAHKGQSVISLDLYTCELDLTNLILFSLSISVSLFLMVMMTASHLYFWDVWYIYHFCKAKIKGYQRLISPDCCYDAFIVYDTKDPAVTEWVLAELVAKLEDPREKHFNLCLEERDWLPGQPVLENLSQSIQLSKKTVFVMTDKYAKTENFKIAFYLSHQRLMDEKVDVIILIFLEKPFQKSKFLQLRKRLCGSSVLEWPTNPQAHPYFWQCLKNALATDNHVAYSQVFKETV
Description: HEK293-Blue-hTLR-7 cells assay. In kind it is cell-based. As to conditions: HEK293-Blue-hTLR7 cells, SEAP reporter, R848 stimulation, 20 hrs. An excerpt:
HEK293-Blue-hTLR-7 Cells Assay:
A stable HEK293-Blue-hTLR-7 cell line was purchased from InvivoGen (Cat. #: hkb-htlr7, San Diego, Calif., USA). These cells were originally designed for studying the stimulation of human TLR7 by monitoring the activation of NF-κB. A SEAP (secreted embryonic alkaline phosphatase) reporter gene was placed under the control of the IFN-β minimal promoter fused to five NF-κB and AP-1-binding sites. The SEAP was induced by activating NF-κB and AP-1 via stimulating HEK-Blue hTLR7 cells with TLR7 ligands. Therefore the reporter expression was declined by TLR7 antagonist under the stimulation of a ligand, such as R848 (Resiquimod), for incubation of 20 hrs. The cell culture supernatant SEAP reporter activity was determined using QUANTI-Blue™ kit (Cat. #: rep-qb1, Invivogen, San Diego, Ca, USA) at a wavelength of 640 nm, a detection medium that turns purple or blue in the presence of alkaline phosphatase.
HEK293-Blue-hTLR7 cells were incubated at a density of 250,000˜450,000 cells/mL in a volume of 170 μL in a 96-well plate in Dulbecco's Modified Eagle's medium (DMEM) containing 4.5 g/L glucose, 50 U/mL penicillin, […], […], 2 mM L-glutamine, 10% (v/v) heat-inactivated fetal bovine serum with addition of 20 sL test compound in a serial dilution in the presence of final DMSO at 1% and 10 μL of 20 uM R848 in above DMEM, perform incubation under 37° C. in a CO2 incubator for 20 hrs. Then 20 μL of the supernatant from each well was incubated with 180 sL Quanti-blue substrate solution at 37° C. for 2 hrs and the absorbance was read at 620-655 nm using a spectrophotometer. The signalling pathway that TLR7 activation leads to downstream NF-κB activation has been widely accepted, and therefore similar reporter assay was modified for evaluating TLR7 antagonist.
`C[C@H]1CN(c2ccc(C#N)c3ncccc23)C[C@@H]1C(=O)NC1CCN(C)CC1` [Example 16, (3R,4R)-1-(8-cyano-5-quinolyl)-4-methyl-N-(1-methyl-4-piperidyl)pyrrolidine-3-carboxamide] registered an IC50 of 22 nM.
To `N#Cc1ccc(N2C[C@@H](C(F)(F)F)[C@H](C(=O)N[C@H]3CNC[C@H]3F)C2)c2cccnc12` [Example 47, Trans-1-(8-cyano-5-quinolyl)-N-[(3S,4R)-4-fluoropyrrolidin-3-yl]-4-(trifluoromethyl)pyrrolidine-3-carboxamide] belongs 124 nM.
`CN1CCC(NC(=O)[C@@H]2CN(c3ccc(C#N)c4ncccc34)C[C@H]2C(F)(F)F)CC1` (relative stereo) [Example 17, Trans-1-(8-cyano-5-quinolyl)-N-(1-methyl-4-piperidyl)-4-(trifluoromethyl)pyrrolidine-3-carboxamide] had an IC50 of 22 nM.
Compound `N#Cc1ccc(N2C[C@H](C(=O)NC3CCN(C4CCNCC4)CC3)[C@@H](C(F)(F)F)C2)c2nccnc12` [Example 35, (3R,4R)-1-(8-Cyanoquinoxalin-5-yl)-N-[1-(4-piperidyl)-4-piperidyl]-4-(trifluoromethyl)pyrrolidine-3-carboxamide] yielded an IC50 of 55 nM. This IC50 lies about 2.5-fold higher than the previous one.
The value for `C[C@H]1CN(c2ccc(C#N)n3nccc23)C[C@@H]1C(=O)NC1CCN(C)CC1` [Example 44, (3R,4R)-1-(7-cyanopyrazolo[1,5-a]pyridin-4-yl)-4-methyl-N-(1-methyl-4 piperidyl)pyrrolidine-3-carboxamide] was 84 nM; that for `C[C@@H]1CN(c2ccc(C#N)c3ncccc23)C[C@H]1C(=O)N1CCC2(CCNC2)C1` (relative stereo) [Example 53, Trans-5-[3-(2,7-diazaspiro[4.4]nonane-2-carbonyl)-4-methyl-pyrrolidin-1-yl]quinoline-8-carbonitrile] was 226 nM; that for `CN(C)CC1CC(NC(=O)C2CN(c3ccc(C(F)(F)F)c4nccnc34)CC23CC3)C1` (stereo not shown) [Example 26, N-[3-[(dimethylamino)methyl]cyclobutyl]-5-[8-(trifluoromethyl)quinoxalin-5-yl]-5-azaspiro[2.4]heptane-7-carboxamide] was 36 nM.
